# Key:
# [1] = test system: meningeal lymphatic vessels; assay: Visudyne ablation, OVA-A647 CSF tracer drainage and brain influx (Example 2); type: in vivo, C57BL/6 mice; settings: vs vehicle
# Description: Adult C57BL/6 mice were injected with visudyne or vehicle (ICM) followed by a step of photoconversion. 7 days post ablation, 2.5 μg of ovalbumin-Alexa647 (OVA-A647) was injected into the CSF (ICM) and mice were transcardially perfused with saline 2 h after. j, Representative sections of dcLNs were stained with DAPI and LYVE-1, and levels of drained OVA-A647 were measured, and representative sections are shown for vehicle (FIG. 24A) and visudyne (FIG. 24B). OVA-A647 alone is shown in the inset in the upper right corner of each of FIGS. 24A and 24B, and LYVE-1 alone is shown in the inset in the lower right corner of each of FIGS. 24A and 24B.
# [2] = test system: meningeal lymphatic vessels; assay: Visudyne ablation then repeated Aβ42 injection into CSF, meningeal aggregates (Example 8); type: in vivo, C57BL/6 mice; settings: Aβ42 2.5 μg every 24 h into CSF for 5 days, from 72 h after ablation, vs vehicle
# Description: C57BL/6 adult mice were anesthetized and injected ICM with visudyne to induce meningeal lymphatic vessel ablation, or vehicle as a control. After the photoconversion step, mice were allowed to recover for 72 h. Then, catheters were implanted in the cisterna magna of all mice and 2.5 μg of Aβ42 were injected every 24 h into the CSF for a total of 5 days. […] Results are presented as mean±s.e.m.; n=5 per group; *P<0.05, **P<0.01, one-tailed Mann-Whitney test.
# [3] = test system: meningeal lymphatic vessels; assay: Visudyne ablation in old mice, OVA-A647 CSF tracer (Example 3); type: in vivo, C57BL/6 mice; settings: old (20-24 months-old) mice, 7 days post ablation, vs old+vehicle
# Description: Injections of visudyne or vehicle (ICM), followed by a photoconversion step, were performed in adult (3 months-old) or old (20-24 months-old) C57BL/6 mice. 7 days post ablation, OVA-A647 (2.5 μg) was injected into the CSF (ICM) and mice were transcardially perfused with saline 2 h after.
# meningeal lymphatic = assay: Lymphatic drainage of fluorescent microbeads into deep cervical lymph nodes (FIG. 15); type: in vivo, mice; settings: pharmacological ablation, 24 h after ablation, vs PBS
# Description: FIGS. 15A-E are a series of diagrams, microscope images, and graphs showing modulation of the meningeal lymphatic affects drainage into the cervical lymph nodes. […] Fluorescent microbeads (0.5 μm in diameter-5 μl) were injected in the lateral ventricle of mice at a rate of 0.5 μl/min. 30 min later, the deep cervical lymph nodes were harvested, sliced and immunostained for the presence of fluorescent beads. FIG. 15B is a pair of representative sections of deep cervical lymph nodes from sham operated (left) and ligated (right) mice immunostained for lymphatic vasculature (Lyve-1), fluorescent microbeads and Lyve-1. Note the accumulation of microbeads in the subcapsular space of the lymph nodes in the sham operated mice (left). […] N=3-4 mice per group, Student-t-test. d. Quantification of the coverage of dCLN section by fluorescent beads in PBS and Visudyne injected mice (24 h after ablation). N=3-5 mice per group, *p<0.05, Student-t-test. e. Quantification of the coverage of dCLN section by fluorescent beads in PBS and VEGF-c injected mice (5 days after VEGF-c injection). N=4 mice per group.
# meningeal lymphatics = assay: Photoablation of meningeal lymphatics, Visudyne 5 or 20 μg, 690 nm laser (FIG. 14); type: in vivo, mice; settings: 5 or 20 μg i.c.v., 24 hrs post-ablation
# Description: Meninges were stained for Lyve-1, Prox1 and CD31 24 hrs post-ablation. […] In FIG. 14C, the top panel refers to a control, the middle mane refers to 20,000 ng of Visudyne, and the bottom panel refers to 5,000 ng of Visudyne.
# [4] = test system: meningeal lymphatic vessels; assay: EAE (MOG35-55) after Visudyne meningeal lymphatic ablation; type: in vivo, C57b16 mice
# Description: FIG. 22 is a graph showing ablation of the meningeal lymphatic decreases EAE score. Adult C57b16 mice were injected ICV (cisterna magna) or intranasally with Visudyne that was then photoconverted (Meningeal ablation) or not (Control). On the same day, EAE was induced by injected MOG 35-55 emulsion subcutaneously. At day 17 mice were scored prior to sacrifice (brain, meninges, and spinal cord were harvested for IHC to measure the amount of demyelination and the infiltrate).
# EAE clinical symptom development in laser. Visudyne (i.n.)+laser and Visudyne (i.c.m.)+laser treated mice. (mean±s.e.m. n=12-41 mice/group pooled from 3 independent experiments, ****p<0.0001, repeated measures 2 way ANOVA with Tukey's multiple comparisons test) is shown in FIG. 51A. Incidence of EAE development (day mice reach a score of 1 or above) in laser, Visudyne (i.n.)+laser and Visudyne (i.c.m.)+laser treated mice. Representative dot plots of CD4 and CD8 T cells in the spinal cord of laser and Visudyne (i.c.m.)+laser mice during late onset EAE (D17) are shown in FIG. 51C. Quantification of the number of CD4 T cells in the spinal cord of laser and Visudyne (i.c.m.)+laser treated mice at D17 post immunization. (mean±s.e.m. n=4/5 mice per group, representative of 2 independent experiments, **p=0.005, unpaired t test) is shown in FIG. 51D. […] Accordingly, it is contemplated that ablation of lymphatic vessels in accordance with some embodiments herein can ameliorate symptoms and disease development of MS, for which EAE (MOG) is a model.
# [5] = test system: meningeal lymphatic vessels; assay: Photoablation of meningeal lymphatic vessels, multiphoton 690 nm laser through thin skull (FIG. 18); type: in vivo, mice; settings: 2 μl i.c.v., two hours after the ablation
# Description: FIGS. 18A-D are a series of microscope images and graphs showing photoablation of meningeal lymphatic vessels. […] (cisterna magna) with 2 μl of Visudyne, which was activated using 690 nm laser of multiphoton microscope through thin skull. Two hours after the ablation, the meninges were collected and stained for lymphatic endothelial cell (Lyve-1) and blood vessels (laminin).
# APPSwe transgenic mice = assay: Visudyne ablation in APPSwe mice, Morris water maze (Example 10); type: in vivo; settings: APPSwe mice 6-7 months-old, ablation every 2 weeks for 1 month, vs vehicle
# Description: Adult (6-7 months-old) APPSwe transgenic mice were anesthetized, injected with visudyne (ICM), or vehicle as a control, and submitted to a step of transcranial photoconversion, every 2 weeks for a total of 1 month. […] Results are presented as mean±s.e.m.; n=9 per group; *P<0.05, two-way ANOVA—Repeated Measures, with Bonferroni post hoc test.
substance,measurement,setting,value
verteporfin [Visudyne],amount of OVA-A647 drained into the dcLNs,"[1]; 2 h after OVA-A647 2.5 μg ICM, 7 days post ablation",significantly decreased
same,OVA-A647 influx into the brain parenchyma,"[1]; 2 h after OVA-A647 ICM, 7 days post ablation",significant decrease
same,brain parenchyma coverage by aquaporin 4 (AQP4) expressing cells,"[1]; adult mice, visudyne-induced ablation",no changes
same,area occupied by Aβ aggregates in meningeal whole-mounts,[2],significant increase in aggregates
same,influx of a CSF tracer (OVA-A647) into the brain,[3],does not further aggravate
same,lymphatic drainage into the cervical lymph nodes after ablation,meningeal lymphatic,alteration of lymphatic drainage
same,effect on the blood vessels (CD31),meningeal lymphatics,No effect on the blood vessels
same,"meningeal lymphatics in superior sagittal and transverse sinuses (Lyve-1, Prox1)",meningeal lymphatics,Disruption of lymphatics
same,EAE disease development,[4]; Visudyne (i.c.m.)+laser vs laser and Visudyne (i.n.)+laser,ameliorate disease development
same,MOG-specific T cell activation in the deep cervical lymph nodes,"[4]; Visudyne (i.c.m.)+laser vs laser, EAE",ameliorates MOG-specific T cell activation
same,EAE score / disease severity,"[4]; Visudyne ICV (cisterna magna) or intranasal, photoconverted vs not, scored day 17",decreases disease severity
same,effect on the blood vessels (laminin),[5],No effect on the blood vessels was observed
same,lymphatic vessels at the area of ablation (superior sagittal sinus),[5],Disruption of lymphatic vessels is evident
same,lymphatic vessels in transverse sinuses,[5],trend to disruption
same,MWM probe and reversal,APPSwe transgenic mice,No differences
same,"latency to find the platform, 4th day of the acquisition phase of the MWM",APPSwe transgenic mice,Significant differences

# — patent US11944665B2, “Methods and compositions for modulating lymphatic vessels in the central nervous system” (University of Virginia Patent Foundation, priority 2016, dated 2024)
